Measurements taken from paper PMC11249626, “Fluorophore-Labeled Pyrrolones Targeting the Intracellular Allosteric Binding Site of the Chemokine Receptor CCR1” (ACS Pharmacology & Translational Science, 2024).

Experiments:
CCR1 [1] = molecular target: T1, CCR1 (Homo sapiens, UniProt P32246); test: Membrane-based NanoBRET competition assay with 12 (2000 nM) and CCR1_Nluc membranes; type: binding; design: Promega pNLF1-C (Nluc) #CCR010TN00; host or cells: HEK293T, transient (PEI); details: for Ki: read-out: Ki, CCR1 (converted)
T1 sequence (P32246 1-355): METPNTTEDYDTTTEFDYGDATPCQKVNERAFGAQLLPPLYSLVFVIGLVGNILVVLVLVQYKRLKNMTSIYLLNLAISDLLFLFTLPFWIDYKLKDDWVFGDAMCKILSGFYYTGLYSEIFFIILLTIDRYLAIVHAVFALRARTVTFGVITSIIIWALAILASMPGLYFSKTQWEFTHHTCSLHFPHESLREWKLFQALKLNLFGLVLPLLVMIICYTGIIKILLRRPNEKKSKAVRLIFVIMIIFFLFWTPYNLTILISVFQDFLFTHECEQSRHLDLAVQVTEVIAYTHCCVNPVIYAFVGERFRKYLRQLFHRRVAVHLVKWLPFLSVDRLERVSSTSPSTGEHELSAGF

CCR1 [2] = molecular target: T1, CCR1; test: Membrane-based NanoBRET saturation binding assay, CCR1_Nluc membranes from HEK293T cells; design: Promega pNLF1-C (Nluc) #CCR010TN00; host or cells: HEK293T, transient (PEI); details: saturation binding of fluorescent ligand, read-out: KD (equilibrium, KD(eq.))
Source text: To evaluate the CCR1 affinity of previously reported (8–9) and new fluorescently labeled pyrrolones (11–12), we developed a NanoBRET-based binding assay (Figures 4A–H and S2A–J). To this end, we used a previously reported CCR1 construct (hereafter referred to as CCR1_Nluc) with a small and bright luciferase variant (nanoluciferase,[52] Nluc), fused to the intracellular C-terminus of CCR1 (Figures 4A and S2A).[47] […] This was expected, given the very low CCR2/CCR1 selectivity of the parental ligands 4 and 5 (Figure 1).[33] For further studies, we selected 12 due to its highest CCR1 affinity.
Cell culture: HEK293T cells were cultured as previously described.8 In brief, HEK293T cells (gift from Chair of Physiology, Prof. Dr. Alzheimer, FAU Erlangen-Nürnberg) were grown on 10 cm culture dishes at 37 °C and 5% CO2. As growth medium, Dulbecco's Modified Eagle Medium (DMEM)/F12 (Invitrogen) supplemented with 10% fetal bovine serum (FBS, Gibco™ Fetal Bovine Serum, qualified, Brazil), L-glutamine (final concentration: 2 mM; from Gibco™ L-glutamine 200 mM, 100X), penicillin (final concentration: 100 units/mL), and streptomycin (final concentration: 100 µg/mL; from Gibco™ Penicillin-Streptomycin 10,000 U/mL) was used. Cells were split every three to four days and regularly confirmed to be free of mycoplasma contamination using the luminescence-based MycoAlert Plus Kit (Lonza).
Transient transfection using polyethylenimine: For transfection, we used a previously published procedure.8 In brief, HEK293T cells were plated onto culture dishes (Ø 10 cm or Ø 15 cm) and grown to a confluence of approximately 50% at 37 °C and 5% CO2. The growth medium was renewed one-hour before transfection. The transfection mix was prepared, as described in the following. Solution A (0.4-2.2% total DNA (1-5.5 µg) in Gibco™ phosphate buffered saline, pH 7.4) and solution B (3% PEI (linear, 25 kDa, from Polysciences) solution prepared from a PEI stock solution (0.4 µg/µL) in PBS without MgCl2 and CaCl2) were mixed one to one, the resulting mixture was vortexed for 5 s and incubated for 30 min at room temperature. The pre-incubated transfection mix was added dropwise to the cells and cell cultivation was continued […]
Membrane preparation: Membranes were prepared as previously reported.8 In brief, membranes from HEK293T cells transiently expressing the respective GPCR were prepared as follows. The medium of the transfected cells was refreshed after 24 h before cells were harvested 48 h post-transfection. […]
Finally, the protein concentration was determined using the Lowry method.9 cDNA constructs: The CCR1-Nluc fusion construct (CCR1_Nluc) in pcDNA3.1 was generated as previously reported1 using the Gibson Assembly10 (New England Biolabs) method. […]

[3] = 12 (2000 nM), CCR1_Nluc membranes

Row | Ki (CCR1 [1]; [3]) | CCR1 over CCR2 binding selectivity (CCR1 [1]; NanoBRET competition binding assays) | pKi ± SEM, CCR1 (CCR1 [1]; [3]) | Kd (CCR1 [2]) | SMILES
1 | 100 nM | at least 172 fold | – | – | O=C(C1=C(O)C(=O)N(CCc2ccc(O)cc2)C1c1ccc(F)cc1)c1ccccc1 (racemic) [compound 23]
2 | 11.8 nM | – | 7.96 ± 0.10 | – | CC(=O)C1=C(O)C(=O)N(c2ccc(Br)cc2F)C1C1CCCCC1 (stereo not drawn) [compound 5, reference compound]
3 | – | – | – | 3170 ± 370 nM | CN(C)c1ccc2c(-c3cc(C(=O)NCCOCCOCc4cn(CCCC(=O)C5=C(O)C(=O)N(c6ccc(Cl)cc6F)C5C5CCCCC5)nn4)ccc3C(=O)[O-])c3ccc(=[N+](C)C)cc-3oc2c1 (stereo not drawn) [compound 11]
4 | – | – | – | 1900 ± 180 nM | CN(C)c1ccc2c(-c3cc(C(=O)NCCOCCOCc4cn(CCCC(=O)C5=C(O)C(=O)N(c6ccc(Br)cc6F)C5C5CCCCC5)nn4)ccc3C(=O)[O-])c3ccc(=[N+](C)C)cc-3oc2c1 (stereo not drawn) [compound 12]
